From patent US9962378B2, “ROS1 inhibitor and its use” (Macau University of Science and Technology, priority 2015, dated 2018)

Experiments:
Assay type in all cases: cell-based
HCC78 cells [1] = assay: colony formation assay; settings: HCC78 cells, 1.25, 2.5 and 5 μM, 10 days; dose-dependent
Procedure: Still further, inhibitory effect of the compound of Formula (V) on the colony formation in HCC78 cells has been tested to provide further evidence that the compound of Formula (V) inhibits the formation of colonies of cancerous cell to an exceptional degree, too.
HCC78 cells were seeded on a six-well plate at a density of 500 cells per well. The cells were exposed to various concentrations of the compound of Formula (V). After 10 days, the colonies were fixed with 4% paraformaldehyde and stained with a 0.5% (0.5% w/v) crystal violet solutions, the number of colonies >50 was counted under a dissecting microscope and surviving fractions were calculated.

[2] = test system: normal lung cells (CCD19-Lu); assay: MTT cytotoxicity assay on normal lung cells; settings: Homo sapiens, CCD 19Lu, 72 h, 0-20 μM, read-out: IC50 (cell viability, MTT)
Procedure: (§1) HCC78 cells and CCD19-Lu cells were obtained from the American Type Culture Collection and cultured in environment of 5% CO2 at 37° C. in RPMI-1640 (GIBCO, Lift Technologies) medium supplemented with 10% fetal bovine serum (FBS) (GIBCO, Lift Technologies), 100 units/mL penicillin, and 100 μg/mL streptomycin (GIBCO, Lift Technologies), crizotinib was purchased from Selleck Chemicals.
(§2) For MTT assay, 3000 cells were seeded on 96-well plates, then treated with DMSO or various concentrations of the compound of Formula (V) for 72 h. At the end of the incubation, 10 μL of MTT (5 mg/mL; Sigma) was added into each well, and the plates were incubated for an additional 4 hours, then the dark blue crystals were dissolved in 100 μL of the resolved solution (10% SDS and 0.1 mM HCL). Finally, the absorbance was measured by a microplate reader at 570 nm (Tecan, Morrisville, N.C., USA). The cell viability was calculated relative to untreated controls, with results based on at least three independent experiments.

[3] = test system: HCC78 NSCLC cells (with ROS1 rearrangement); assay: MTT cytotoxicity assay on HCC78 NSCLC cells; settings: Homo sapiens, 72 h, mean±SEM, read-out: IC50 (cell viability, MTT)
Procedure: as §1, §2

[4] = test system: ROS1 phosphorylation and ROS1 downstream signaling molecules pERK1/2, pSTAT3 and pAKT; assay: western blot of ROS1 phosphorylation and downstream signaling; settings: HCC78 cells, 2.5, 5 and 10 μM, dose-dependent
Procedure: Additionally, the suppression of ROS1 phosphorylation as well as its downstream signaling pathway by the compound of Formula (V) has been studied.
Cells exposed to different concentrations of compound of Formula (V), namely 2.5, 5 and 10 μM or 2.5 μM crizotinib as described above and a control group were washed twice with cold PBS then lysed in RIPA lysis buffer containing protease and phosphatase inhibitors, protein concentration of the cell lysates were measured using the Bio-Rad protein Assay kit (Bio-Rad, Philadelphia, Pa., USA). After equalizing the protein concentrations of the samples, 5× laemmli buffer was added and boiled at 100° C. for 5 min. Equal amounts of protein (20-40 μg per lane) were separated with a 10% SDS-PAGE gel, then the separated proteins were transferred to a nitrocellulose (NC) membrane, which was then exposed to 5% non-fat dry milk in TBS containing 0.1% Tween 20 (0.1% TBST) for 1 hour at room temperature with constant agitation, followed by overnight incubation at 4° C. with primary antibodies, after washing 3 times by TBST, the membranes were incubated with secondary rabbit or mouse fluorescent antibodies, the signal intensity of the membranes was detected by an LI-COR Odessy scanner (Belfast, Me., USA). Antibodies against GAPDH, p-AKT, p-ROS1, ROS1, p-ERK, ERK, p-STAT3, STAT3 were purchased from Cell signaling Technology. […]

HCC78 cells [5] = assay: Annexin-V FITC/PI flow cytometry apoptosis assay; settings: HCC78 cells, 2.5, 5 and 10 μM, 24 h, compared to control group; concentration-dependent
Procedure: HCC78 cells (1.0×10^5 cells/well) were allowed to attach in a 6-well plates for 24 h, cells were treated with the compound of Formula (V) for 24 h. Subsequently, cells were trypsinized, washed with PBS and stained with 100 μL binding buffer containing 2 μL Annexin-V FITC and 4 μL propidine iodide (PI) incubated in the dark at room temperature for 15 min, before further addition of 400 μL of 1× Annexin-binding buffer. The stained cells were analyzed quantitatively using a Flow Cytometer (BD Biosciences, San Jose, Calif., USA). Data were analyzed by Flow Jo software.

## CCN(CC)CCNC(=O)c1cc2c(=O)n(C)c3cc(Cl)ccc3c2s1 [compound of Formula (V)]
HCC78 cells [1]
  formation of HCC78 cell colonies: advantageously inhibited the formation of HCC78 cell colonies
[2]
  IC50: > 20 µM
[3]
  IC50: 6.35 ± 1.44 µM
[4]
  ROS1 downstream signaling molecules pERK1/2, pSTAT3 and pAKT: inhibition
  ROS1 phosphorylation: inhibition of ROS1 phosphorylation
HCC78 cells [5]
  induction of apoptosis: induced significant levels of cell apoptosis compared to the control group
